Assay results published in the supplement of paper PMC10307832.

Key:
Assay in all cases: relative viability (nuclei count vs DMSO), 5 days (fraction); higher = more cells survive
[1] = compound: COc1ccc(-c2ccc3c(N4CCOC[C@@H]4C)nc(N4CCOC[C@@H]4C)nc3n2)cc1CO [AZD8055] + CC(C)C[C@H](NC(=O)[C@H](Cc1ccccc1)NC(=O)c1cnccn1)B(O)O [Bortezomib] (partner 0.002 µM)
Method in brief: (§1)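 Relative viability was taken as the ratio of nuclei in treated wells to nuclei in vehicle wells. Lung cancer cell lines in 1536-well plates received compounds by pin tool one day after seeding, either one drug alone or a fixed anchor-drug dose plus five library-drug doses (not always all listed) in √10 steps. Nuclei were counted on 4× images after 5 days of treatment, and values are medians of duplicate plates.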

[2] = compound: COc1ccc(-c2ccc3c(N4CCOC[C@@H]4C)nc(N4CCOC[C@@H]4C)nc3n2)cc1CO [AZD8055] + CC(=O)Nc1cccc(-n2c(=O)n(C3CC3)c(=O)c3c(Nc4ccc(I)cc4F)n(C)c(=O)c(C)c32)c1 [Trametinib] (partner 0.02 µM)
Method in brief: as §1

[3] = compound: COc1ccc(-c2ccc3c(N4CCOC[C@@H]4C)nc(N4CCOC[C@@H]4C)nc3n2)cc1CO [AZD8055] + O=C(c1cc(Cc2n[nH]c(=O)c3ccccc23)ccc1F)N1CCN(C(=O)C2CC2)CC1 [Olaparib] (partner 8 µM)
Method in brief: as §1

[4] = compound: COc1ccc(-c2ccc3c(N4CCOC[C@@H]4C)nc(N4CCOC[C@@H]4C)nc3n2)cc1CO [AZD8055] + CS(=O)(=O)N1CCN(Cc2cc3nc(-c4cccc5[nH]ncc45)nc(N4CCOCC4)c3s2)CC1 [Pictilisib] (partner 1 µM)
Method in brief: as §1

Row | Cell Line | relative viability ([1]; first compound 0.01 µM) | relative viability ([1]; first compound 0.03162 µM) | relative viability ([1]; first compound 0.1 µM) | relative viability ([1]; first compound 0.3162 µM) | relative viability ([1]; first compound 1 µM) | relative viability ([2]; first compound 0.01 µM) | relative viability ([2]; first compound 0.03162 µM) | relative viability ([2]; first compound 0.1 µM) | relative viability ([2]; first compound 0.3162 µM) | relative viability ([2]; first compound 1 µM) | relative viability ([3]; first compound 0.01 µM) | relative viability ([3]; first compound 0.03162 µM) | relative viability ([3]; first compound 0.1 µM) | relative viability ([3]; first compound 0.3162 µM) | relative viability ([3]; first compound 1 µM) | relative viability ([4]; first compound 0.01 µM) | relative viability ([4]; first compound 0.03162 µM) | relative viability ([4]; first compound 0.1 µM) | relative viability ([4]; first compound 0.3162 µM) | relative viability ([4]; first compound 1 µM)
1 | NCI-H1734 | 0.954 | 0.729 | 0.552 | 0.278 | 0.274 | 0.747 | 0.559 | 0.531 | 0.312 | 0.242 | 0.675 | 0.555 | 0.458 | 0.298 | 0.199 | 0.427 | 0.312 | 0.295 | 0.175 | 0.199
2 | NCI-H1755 | 0.98 | 0.879 | 0.75 | 0.459 | 0.359 | 0.729 | 0.673 | 0.615 | 0.404 | 0.385 | 0.767 | 0.765 | 0.677 | 0.446 | 0.378 | 0.39 | 0.312 | 0.274 | 0.253 | 0.271
3 | NCI-H1792 | 0.93 | 0.771 | 0.827 | 0.173 | 0.189 | 0.511 | 0.273 | 0.227 | 0.0933 | 0.0673 | 0.503 | 0.379 | 0.0968 | 0.0717 | 0.108 | 0.235 | 0.229 | 0.142 | 0.112 | 0.094
4 | NCI-H1915 | 1.09 | 0.961 | 1.02 | 0.663 | 0.652 | 0.286 | 0.254 | 0.259 | 0.174 | 0.146 | 0.257 | 0.262 | 0.289 | 0.238 | 0.204 | 0.879 | 0.715 | 0.851 | 0.706 | 0.487
5 | NCI-H1975 | 0.409 | 0.303 | 0.282 | 0.206 | 0.216 | 0.417 | 0.313 | 0.193 | 0.192 | 0.18 | 0.976 | 0.677 | 0.464 | 0.221 | 0.189 | 0.257 | 0.209 | 0.183 | 0.179 | 0.176
6 | NCI-H1993 | 0.886 | 0.706 | 0.599 | 0.568 | 0.586 | 0.493 | 0.443 | 0.517 | 0.449 | 0.413 | 1.02 | 0.793 | 0.602 | 0.409 | 0.434 | 0.752 | 0.701 | 0.892 | 0.637 | 0.896
7 | NCI-H2009 | 1.14 | 0.649 | 0.845 | 0.35 | 0.264 | 0.249 | 0.248 | 0.205 | 0.14 | 0.141 | 0.677 | 0.861 | 0.634 | 0.344 | 0.254 | 0.762 | 0.441 | 0.561 | 0.343 | 0.333
